Where a name gives a salt, the structure may show the parent alone.
Experiments:
[1] = system: α1-adrenoceptor; experiment: α1-adrenoceptor blocking activity, phenylephrine-induced contraction of rabbit prostate smooth muscle strips; parameters: species or system Rabbits; conditions: rabbit prostate strip; vs phenylephrine concentration-response curve; test drug 10^-7-10^-5 M for 30 minutes; 10^-5 M propranolol present
Description: (§1) <α1-Adrenoceptor Blocking Activity>
(§2) Rabbits were exsanguinated to death, and the prostatic urethra and the prostate were removed and smooth muscle strips were prepared. Each strip was suspended in a 37° C. Krebs-solution-containing organ bath which had been bubbled with 95% O2 and 5% CO2. Isometric contraction under a resting tension of 1 g was recorded by an isometric transducer (by Nihon Koden: TB-651T) on a pen-type recorder (product of Nihon Denki San'ei: RECTI HORIZ 8K).
(§3) After the strips had been equilibrated for 60 minutes, contractions were elicited by use of a certain concentration of phenylephrine (10^−5 M). Subsequently, the organ bath was washed with a physiological solution, and the above procedure was repeated at 60-minute intervals of resting time until constant constriction responses of the strips were obtained. Next, phenylephrine was added cumulatively to organ bath(10^−7-3×10^−4 M), to thereby obtain concentration-response curves (control). After the resting period of 60 minutes following washing of the strip, test samples (DMSO solutions containing the test drug; 10^−7-10^−5 M) were treated for 30 minutes, and concentration-response curves of phenylephrine were obtained.
(§4) The composition of the physiological solution was as follows: NaCl 118.4 mM, KCl 4.7 mM, MgCl2 1.2 mM, CaCl2 2.5 mM, NaHCO3 25.0 mM, glucose […], and KH2PO4 1.2 mM.
(§5) In all cases, 10^−5 M propranolol (β-adrenoceptor antagonist) was added to the physiological solution 10 minutes before test sample was treated with strip.
(§6) The potency of each test drug with regard to the α1-adrenoceptor blocking activity was evaluated on the basis of calculation of pA2 (inverse of the logarithm of the concentration by mole of the antagonist which, in the presence of the antagonist, requires twice the concentration of the agonist for providing the same effect as required in the absence of the antagonist).

[2] = system: α1-adrenoceptor; experiment: α1-adrenoceptor blocking activity, phenylephrine-induced contraction of rabbit prostatic urethra smooth muscle strips; parameters: species or system Rabbits; conditions: rabbit prostatic urethra strip; vs phenylephrine concentration-response curve; test drug 10^-7-10^-5 M for 30 minutes; 10^-5 M propranolol present
Description: as §1, §2, §3, §4, §5, §6

| SMILES | pA2 prostate [1] | pA2 Urethra [2] |
| --- | --- | --- |
| COc1ccccc1N1CCN(CC[C@H](Oc2ccc(C#N)cc2)c2ccc(C)cc2)CC1 [Example 1, (S)-4-[3-[4-(2-methoxyphenyl)piperazin-1-yl]-1-(4-methylphenyl)propoxy]benzonitrile dihydrochloride] | 8.00 | 8.44 |
| COc1ccccc1N1CCN(CC[C@H](Oc2ccc(C(=O)O)cc2)c2ccc(C)cc2)CC1 [Example 2, (S)-4-[3-[4-(2-methoxyphenyl)piperazin-1-yl]-1-(4-methylphenyl)propoxy]benzoic acid] | 8.67 | 8.73 |
| COc1ccccc1N1CCN(CC[C@H](Oc2ccc(C(=O)c3c[nH]c4ccccc34)cc2)c2ccc(C)cc2)CC1.Cl [Example 3, (S)-3-[4-[3-[4-(2-methoxyphenyl)piperazin-1-yl]-1-(4-methylphenyl)propoxy]benzoyl]indole hydrochloride] | 6.89 | 6.29 |
